From patent US20250026769A1, “PAPD5 INHIBITORS AND METHODS OF USE THEREOF” (The Children's Medical Center Corporation, priority 2021, published 2025)
pIC50: −log10 of the molar value. Where two headings read alike, the source gives them in different places.

Tests used:
[1] = test system: TERC 3′ end processing in DC patient iPSCs; experiment: TERC 3′ end processing by RACE in DC patient / PARN-mutant iPSCs; assay type: cell-based, human; conditions: for minimal effective concentration: Homo sapiens, iPSC, patient iPSCs, concentration class at which activity is seen, read-out: iPSC-based RACE activity
Outline: (§1)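 Activity binned by concentration giving effect in DC patient iPSCs: "+" at 1 μM, "++" above 1 nM and below 1 μM, "+++" below 1 nM; ND, not determined.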

[2] = test system: telomere length in DC patient iPSCs; experiment: telomere length / telomere elongation in DC patient iPSCs; assay type: cell-based, human; conditions: for minimal effective concentration: Homo sapiens, iPSC, patient iPSCs, concentration class at which activity is seen, read-out: iPSC-based Telomere length
Outline: as §1

rPAPD5 = target: T1, rPAPD5 (Homo sapiens, UniProt Q8NDF8); experiment: differential scanning fluorimetry (DSF) binding and stabilization of rPAPD5; conditions: for ΔTm at 100 µM: read-out: ΔTm at 100 μM; for ΔTm at 1 µM: 1 μM test compound (Table 2a), read-out: ΔTm at 1 μM
T1 construct: made in house
T1 sequence (Q8NDF8 68-698 isoform Q8NDF8-5 limits assumed): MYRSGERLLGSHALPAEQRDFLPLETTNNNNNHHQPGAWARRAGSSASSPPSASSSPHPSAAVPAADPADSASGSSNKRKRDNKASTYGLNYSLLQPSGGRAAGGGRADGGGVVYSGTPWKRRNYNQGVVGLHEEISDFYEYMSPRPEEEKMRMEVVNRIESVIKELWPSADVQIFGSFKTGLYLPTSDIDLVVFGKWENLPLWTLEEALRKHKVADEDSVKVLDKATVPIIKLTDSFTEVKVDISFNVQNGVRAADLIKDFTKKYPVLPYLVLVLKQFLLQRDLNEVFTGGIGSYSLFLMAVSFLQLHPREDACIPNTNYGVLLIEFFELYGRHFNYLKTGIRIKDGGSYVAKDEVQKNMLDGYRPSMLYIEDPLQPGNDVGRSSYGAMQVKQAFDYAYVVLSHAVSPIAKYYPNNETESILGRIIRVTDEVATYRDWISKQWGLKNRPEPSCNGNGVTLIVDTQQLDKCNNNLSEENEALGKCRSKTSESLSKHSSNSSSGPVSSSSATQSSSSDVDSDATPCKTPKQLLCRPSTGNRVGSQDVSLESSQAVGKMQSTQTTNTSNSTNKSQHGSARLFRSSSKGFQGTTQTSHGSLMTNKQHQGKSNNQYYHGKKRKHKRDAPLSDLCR
Outline: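 Compound-induced shifts in rPAPD5 melting temperature were determined by thermal shift (DSF). Protein at […] was mixed with a non-extendable ATP analog […] in Tris-HCl (25 mM), MgCl2 (5 mM) and KCl (50 mM), with SYPRO orange at 1:5000. Curves were averages of three measurements analyzed with Thermal Shift software, and ΔTm was referenced to DMSO.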

[3] = test system: hepatitis B surface antigen (HBSAg) from HepG2.2.15 cells, a hepatitis B virus-expressing cell line; experiment: HBsAg ELISA in supernatant of HepG2.2.15 cells; assay type: cell-based; conditions: HepG2.2.15, 96 h
Outline: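 HepG2.2.15 cells plated at 50,000/well, then exposed the next day to 3-fold compound dilutions from 100 μM to 333 pM, with DMSO vehicle as control. After 4 days at 37 °C, HBsAg in the supernatant was measured by ELISA. IC50 obtained by nonlinear fitting of averaged replicates.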

[4] = test system: TERC 3′ end processing in primary CD34+ human hematopoietic stem and progenitor cells (HSPCs); experiment: TERC 3′ end processing (RACE) in CRISPR/Cas9-engineered PARN-deficient primary CD34+ HSPCs; assay type: cell-based; conditions: for TERC 3′ end processing by RACE at 100 nM: day 5 (FIG. 40B); for TERC 3′ end processing by RACE at 1 μM: day 5 (FIG. 40A)
From the text: Example 167—Restoration of TERC 3′ end processing in primary CD34+ human hematopoietic stem and progenitor cells (HSPCs). To determine the efficacy of exemplified compounds in a disease-relevant stem cell population, we employed a highly-efficient CRISPR-Cas9 ribonucleoprotein transduction strategy to disrupt the PARN gene in primary human CD34+ hematopoietic stem and progenitor cells (HSPCs), or the control locus AAVS1. FIGS. 40A and 40B show extended TERC forms in CRISPR-Cas9 engineered HSPCs deficient in PARN.

[5] = test system: TERC 3′ ends in human CD19+ cells recovered from mice xenotransplanted with HSPCs; experiment: TERC 3′ end processing in vivo in human CD19+ cells after xenotransplantation into NBSGW mice; design: species or system immunodeficient NBSGW mice with human HSPCs
From the text: (§2) Example 168—Restoration of TERC 3′ end processing in vivo in human blood cells after xenotransplantation into immunodeficient mice. To determine the efficacy of orally administered exemplified compounds in primary human HSPCs and blood cells in restoring TERC processing in vivo, highly-efficient CRISPR-Cas9 ribonucleoprotein transduction was employed to disrupt the PARN gene in primary human CD34+ HSPCs or the control locus AAVS1. These genome-edited human HSPCs were xenotransplanted into immunodeficient NOD,B6.SCID Il2rg−/− KitW4l/W41 (NBSGW) mice, which engraft human HSPCs without exposure to radiation or chemotherapy. Six to ten weeks after xenotransplantation, exemplified compounds were administered for 4 to 7 days alongside controls. Thereafter, human hematopoietic cells were recovered from mouse bone marrow, and engraftment was analyzed by flow cytometry. Engrafted human hematopoietic cells were sorted for lineage markers, and CD19+ cells were used for analysis of restoration of TERC 3′ end processing by RNA-ligation mediated 3′ RACE.

[6] = test system: engraftment of CD45+, CD19+, CD34+ human blood cells; experiment: engraftment of human blood cells in xenotransplanted mice by flow cytometry; assay type: in vivo, immunodeficient NBSGW mice with human HSPCs
From the text: as §2

[7] = 10 μM test compound (Table 2a), read-out: ΔTm at 10 μM

| Structure (SMILES) | concentration showing maturation of TERC 3′ end processing by RACE ([1]; DC patient iPSCs) | concentration at which telomere elongation was observed ([2]; DC patient iPSCs, after 3-4 weeks of cell culture) | ΔTm at 100 µM (rPAPD5) | pIC50 [3] | TERC 3′ end processing by RACE at 100 nM [4] | TERC 3′ end processing by RACE at 1 μM [4] | TERC 3′ ends in human CD19+ cells (RACE) ([5]; 32 mg/kg/dose twice daily for 11 doses, with 250 μM in drinking water (FIG. 41A)) | aberrant TERC oligo-adenylation in xenotransplanted PARN-deficient human blood cells ([5]; oral, 32 mg/kg/dose twice daily for 11 doses, with 250 μM in drinking water, RACE amplicon sequencing) | engraftment of CD45+, CD19+, CD34+ human blood cells ([6]; 32 mg/kg/dose twice daily for 11 doses, with 250 μM in drinking water) | minimal effective concentration [1] | minimal effective concentration [2] | ΔTm at 1 µM (rPAPD5) | ΔTm at 10 µM (rPAPD5; [7]) | ΔTm at 100 µM (rPAPD5; 100 μM test compound, shift vs DMSO control) | TERC 3′ ends in human CD19+ cells (RACE) ([5]; 1 mM in drinking water for 7 days (FIG. 41C)) | engraftment of CD45+, CD19+, CD34+ human blood cells ([6]; 1 mM in drinking water for 7 days) | ΔTm at 10 µM (rPAPD5; 10 μM test compound, shift vs DMSO control, read-out: ΔTm (Table 2, starred: the compound was tested at 10 μM)) | TERC 3′ ends in human CD19+ cells (RACE) ([5]; 32 mg/kg/dose twice daily for 11 doses (FIG. 41D)) | engraftment of CD45+, CD19+, CD34+ human blood cells ([6]; 32 mg/kg/dose twice daily for 11 doses) |
| --- | --- | --- | --- | --- | --- | --- | --- | --- | --- | --- | --- | --- | --- | --- | --- | --- | --- | --- | --- |
| O=C(O)c1cc(Cl)ccc1Nc1c(C2CCOCC2)cnc2ccc(Cl)cc12 [Compound 296A, 5-chloro-2-[(6-chloro-3-tetrahydropyran-4-yl-4-quinolyl)amino]benzoic acid] | 1 nM | 1 nM | > 5 °C | 8.30 | maturation of TERC 3′ end processing | maturation of TERC 3′ end processing | maturation of TERC 3′ ends | significantly reversed | no change in engraftment | – | – | – | – | – | – | – | – | – | – |
| O=C(O)c1cc(Cl)ccc1Nc1c(N2CCOCC2)cnc2ccc(Cl)cc12 [Compound 339A, 5-chloro-2-[(6-chloro-3-morpholino-4-quinolyl)amino]benzoic acid] | – | – | – | 7.12 | maturation of TERC 3′ end processing | maturation of TERC 3′ end processing | – | – | – | < 0.001 µM | < 0.001 µM | > 5 °C | > 5 °C | > 5 °C | maturation of TERC 3′ ends | no change in engraftment | – | – | – |
| O=C(O)c1cc(Cl)ccc1Nc1c(N2CCC(F)CC2)cnc2ccc(Cl)cc12 [Compound 392A, 5-chloro-2-[[6-chloro-3-(4-fluoro-1-piperidyl)-4-quinolyl]amino]benzoic acid] | – | – | – | 7.02 | maturation of TERC 3′ end processing | maturation of TERC 3′ end processing | – | – | – | < 0.001 µM | < 0.001 µM | > 5 °C | > 5 °C | – | – | – | > 5 °C | maturation of TERC 3′ ends | no change in engraftment |
